Test results published in patent US20250367211A1, “RESCUE TREATMENT OF POST OPERATIVE NAUSEA AND VOMITING” (ACACIA PHARMA LIMITED, priority 2017, published 2025).

Tests used:
[1] = compared with the (R+)-enantiomer; cited from earlier work
[2] = system: adult surgical patients at high risk of suffering PONV; assay: Phase III trial, PONV prophylaxis in combination with a standard anti-emetic; format: in vivo, human; details: 5 mg in combination with a standard anti-emetic, 1147 evaluable patients, p<0.001 vs placebo plus standard anti-emetic (53%)
[3] = system: adult surgical patients at moderate-to-high risk of suffering PONV; assay: Phase II dose-ranging trial, IV amisulpride for PONV prophylaxis; format: in vivo, human
Method: In a multi-centre, double-blind, randomised, dose-ranging Phase II trial (conducted by the applicant), amisulpride was given intravenously to adult surgical patients at moderate-to-high risk of suffering PONV (prophylaxis), at doses of 1 mg, 5 mg and 20 mg, with a fourth group receiving placebo.

[4] = system: adult patients with established PONV who have had prior PONV prophylaxis; assay: Study 1: rescue treatment of established PONV after failed prior prophylaxis; format: in vivo, human; details: for complete response (CR) rate: no emesis 30 min to 24 h and no rescue medication in 24 h, placebo 28.5%
Method: A randomised, double-blind, placebo-controlled study of amisulpride for IV injection as treatment of established postoperative nausea and vomiting, in patients who have had prior prophylaxis was conducted. The primary aim of the study was to compare the efficacy of 5 mg and 10 mg amisulpride to placebo as treatment of established PONV, in patients who have had prior PONV prophylaxis.
The study was performed in adult patients (≥18 years) with an expected duration of inhalational anaesthesia of at least 1 hour, who experienced PONV in the 24-hour period after surgery, having had prior PONV prophylaxis.
Amisulpride at a dose of 5 mg or 10 mg or matching placebo was given once by slow IV administration, over about 2 minutes.
The primary efficacy variable was the dichotomous variable: success or failure of initial PONV treatment, where success is defined as no emetic episodes (vomiting or retching) from 30 minutes to 24 hours after administration of study medication and no administration of antiemetic rescue medication at any time in the 24-hour period after study medication (a “complete response”).
The secondary efficacy variables included: • The occurrence and severity of nausea (a VRS score >0) and of significant nausea (a VRS score ≥4), including measures of the time course of nausea, such as area under the curve for nausea scores for time periods up to 24 hours. • The occurrence of vomiting (to include retching) after administration of study medication. • Use of anti-emetic rescue medication. • Time to failure of initial PONV treatment. • Sub-analyses of success and failure according to various parameters, including by time of onset of PONV relative to end of surgery and by sex.

[5] = system: patients with PONV who had not received prior prophylaxis; assay: Clinical trial, treatment of PONV in patients without prior prophylaxis; format: in vivo, human; details: no prior prophylaxis
Method: In another clinical trial conducted by the applicant, amisulpride at doses of 5 mg and 10 mg were compared with placebo for the treatment of PONV, in patients who had not received prior prophylaxis.

[6] = system: adult surgical patients at moderate-to-high risk of suffering PONV; assay: Two Phase III placebo-controlled trials, PONV prophylaxis; format: in vivo, human; details: 5 mg, 626 evaluable patients, p<0.01 vs placebo (59%)

Compound	share of therapeutic activity of amisulpride [1]	incidence of PONV [2] [%]	incidence of PONV ([3]; 1 mg intravenously, p<0.05 vs placebo (69%)) [%]	incidence of PONV ([3]; 5 mg intravenously, p<0.01 vs placebo (69%)) [%]	incidence of PONV compared to placebo ([3]; 20 mg intravenously, placebo 69%, not stated as significant)	complete response (CR) rate ([4]; 5 mg once by slow IV, 237 patients, p = 0.109)	complete response (CR) rate ([4]; 10 mg once by slow IV, 230 patients, p = 0.003)	efficacy as PONV rescue treatment, 10 mg versus 5 mg dose ([4]; patients with prior unsuccessful PONV prophylaxis)	treatment of PONV versus placebo ([5]; 5 mg)	treatment of PONV versus placebo ([5]; 10 mg)	clinical efficacy, 5 mg versus 10 mg dose ([5]; treatment of PONV)	incidence of PONV [6] [%]
CCN1CCCC1CNC(=O)c1cc(S(=O)(=O)CC)c(N)cc1OC (stereo not drawn) [(S−)-amisulpride]	almost all of the therapeutic activity											
CCN1CCCC1CNC(=O)c1cc(S(=O)(=O)CC)c(N)cc1OC (racemic) [amisulpride]		42	48	40	lower	33.8% (p = 0.109)	41.7%, (p = 0.003)	more effective	significantly better than placebo	significantly better than placebo	no difference	48
